# Test results taken from patent US20030069264A1, “METHOD OF DETERMINING AND REDUCING THE RISK OF BPH-RELATED UROLOGIC EVENTS” (priority 1998, published 2003).
# “Also recorded” adds a separate entry of the source.
# Tested on: men with clinical BPH
# Experiment: four-year, double-blind placebo-controlled study of finasteride in men with clinical BPH (acute urinary retention and BPH-related surgery outcomes)
# Assay type: in vivo, human
# Settings: for risk of AUR or BPH-related surgery / finasteride-related reduction of risk (AUR or surgery): 4 years; for finasteride-related reduction of risk (AUR or surgery): versus placebo
# Description: A total of 3040 men with clinical BPH diagnosed on the basis of moderate-to-severe symptoms, a decreased peak urinary flow rate (less than 15 mL/sec with a voided volume of 150 mL or more) and an enlarged prostate gland by digital rectal examination (DRE) were enrolled in a four-year study comparing finasteride with placebo. Men receiving alpha blocking agents or antiandrogens, and men with a history of chronic prostatitis, recurrent urinary tract infections, prostate or bladder cancer or surgery, or a serum PSA over 10 ng/mL were excluded. Men with serum PSA concentrations between 4.0 and 9.9 ng/mL had to have a negative prostate biopsy prior to enrollment.
# After a one-month single-blind placebo lead-in, men were randomly assigned to receive placebo or 5 mg of finasteride (17β-(N-tert-butylcarbamoyl)-3-oxo-4-aza-5α-androst-1-en-3-one) daily in a four year, double-blind placebo-controlled study. BPH-related outcomes including symptoms, bothersomeness, adverse events and urinary flow rates, were assessed every 4 months. Serum PSA was measured every 4 months in the first year and then every 8 months at a central laboratory. Physical examination and routine hematological and serum chemistry tests were performed yearly. Magnetic resonance imaging (MRI) was performed at baseline and subsequently yearly in a subset of 10% of patients. All MRI images were read by a central radiologist blinded to treatment allocation and time of imaging.
# Acute urinary retention (AUR) and surgery for BPH were predefined secondary end-points. The endpoint committee, blinded to treatment group, reviewed all study-related documents related to episodes of acute urinary retention, and all prostate surgeries for BPH, excluding surgery for prostate cancer. The endpoint committee classified episodes of AUR as spontaneous versus precipitated (when contributing factors such as urinary tract infection, surgery anesthesia, ingestion of alpha sympathomimetic drugs or anticholinergics were identified).
# Complete data on outcomes, including four-year follow-up information for men who had discontinued treatment, were available for 92% of the men randomized. In the other 8%, complete information was available until discontinuation of the medication or up to the 6-month follow-up assessment after discontinuation.
# The effect of baseline serum PSA on the risk of BPH-related outcomes (developing AUR and need for BPH-related surgery), were assessed by dividing patients into tertiles of baseline serum PSA, and calculating the risk of developing an outcome by time-to-first event analysis as well as Fisher's exact test for cumulative incidence. The finasteride-related reduction in risk over 4 years was calculated using log rank analyses. All statistical tests were two-sided and a p-value of <0.05 accepted as significant.
# The measurement characteristics of baseline in prediction of BPH-related outcomes were evaluated using receiver operating characteristic (ROC) curves. The area under the ROC curve (AUC) for a given population is given by the probability that a randomly chosen individual in the affected population has a higher value of the index (in this case PSA) than a randomly chosen individual in the non-affected population. The AUC's were computed using the method of Hanley and McNeil. Differences between AUC's in the finasteride and placebo group were tested using normal statistics with standard deviations computed by the same method.
# [1] = 5 mg daily, four years, all patients
# [2] = lowest tertile of serum PSA (0.0-1.3 ng/mL)
# [3] = second tertile (serum PSA 1.4-3.2 ng/mL)
compound,measurement,setting,value
"CC(C)(C)NC(=O)[C@H]1CC[C@H]2[C@@H]3CC[C@H]4NC(=O)C=C[C@]4(C)[C@H]3CC[C@]12C [finasteride, 17β-(N-tert-butylcarbamoyl)-3-oxo-4-aza-5α-androst-1-en-3-one]",incidence of BPH-related surgery,[1],5%
same,incidence of precipitated AUR,[1],2%
same,incidence of spontaneous AUR,[1],1%
same,overall incidence of acute urinary retention,"5 mg finasteride daily, four years, all patients",4%
same,decrease of the risk of developing a BPH-related outcome,all subgroups examined,approximately half
same,increase of cumulative incidence of spontaneous AUR with increasing baseline serum PSA,"finasteride-treated patients, four years, FIG. 1",nearly absent; also recorded: the risk remains unchanged over the entire serum PSA spectrum
same,increase of cumulative incidence of all AUR (spontaneous and precipitated combined) with increasing baseline serum PSA,"finasteride-treated patients, four years, FIG. 2",nearly absent
same,increase of cumulative incidence of BPH-related surgery across baseline PSA values,"finasteride-treated patients, four years, FIG. 3",increases only in finasteride-treated patients in men with a baseline PSA above 5.0 ng/mL
same,risk of AUR or BPH-related surgery,highest tertile of baseline serum PSA,8.3%
same,risk of AUR or BPH-related surgery,lowest tertile of baseline serum PSA,4.4%
same,4-year relative risk for finasteride versus placebo-treated patients,[2],0.57
same,benefit of finasteride over placebo in the first two years (risk of AUR or surgery),[2],minimal; also recorded: no apparent benefit
same,finasteride-related reduction of risk (AUR or surgery),[2],43%
same,4-year relative risk for finasteride versus placebo-treated patients,[3],0.54
same,finasteride-related reduction of risk (AUR or surgery),[3],46%
same,4-year relative risk for finasteride versus placebo treated patients,third tertile of serum PSA (3.3-12 ng/mL),0.40
same,finasteride-related reduction of risk (AUR or surgery),third/highest tertile of serum PSA (3.3-12 ng/mL),60%
